{"source": "the supplement of paper PMC8671470"}
{"test_system": "K-562", "experiment": "cell viability (% survival relative to DMSO control, bortezomib = 0%); higher = less cytotoxic", "conditions": "1000 nM; 72 h", "method_in_brief": "(§1)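 In 384-well plates pre-printed with compounds at 1, 10, 100, 1000 or 10000 nM, duplicate wells received cells from 10 AML and 5 CML lines at densities within the linear growth range. The plates stayed at 37 °C with 5% CO2 for 72 h before CellTiter-Glo luminescence was recorded. Each entry is averaged percent survival. Scaling placed vehicle at 100% and a 10 µM positive control at 0%.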", "units": {"cell viability": "%"}}
{"smiles": "CCCCCCCCCCC[C@@H](C[C@@H]1OC(=O)[C@H]1CCCCCC)OC(=O)[C@H](CC(C)C)NC=O", "note": "[Orlistat]", "cell viability": 103}
{"smiles": "COc1ccc(C(=O)Nc2c(Cl)cncc2Cl)cc1OC1CCCC1", "note": "[Piclamilast]", "cell viability": 108}
{"smiles": "COc1cc(/C=C/C(=O)N2CCC=CC2=O)cc(OC)c1OC", "note": "[Piperlongumine]", "cell viability": 77.3}
{"smiles": "O=C(NNc1ccccc1)c1ccncc1", "note": "[PluriSln 1]", "cell viability": 86.4}
{"smiles": "CC(C)c1nc(CN(C)C(=O)N[C@H](C(=O)N[C@@H](Cc2ccccc2)C[C@H](O)[C@H](Cc2ccccc2)NC(=O)OCc2cncs2)C(C)C)cs1", "note": "[Ritonavir]", "cell viability": 108}
{"smiles": "C=C(C)[C@H]1Cc2c(ccc3c2O[C@@H]2COc4cc(OC)c(OC)cc4[C@@H]2C3=O)O1", "note": "[Rotenone]", "cell viability": 3.39}
{"smiles": "Oc1ccc(Nc2nc(-c3ccc(Cl)cc3)cs2)cc1", "note": "[SKI II]", "cell viability": 75.2}
{"smiles": "O=C(O)c1cc(N=Nc2ccc(S(=O)(=O)Nc3ccccn3)cc2)ccc1O", "note": "[Sulfasalazine]", "cell viability": 90.3}
{"test_system": "K-562", "experiment": "cell viability (% survival relative to DMSO control, bortezomib = 0%); higher = less cytotoxic", "conditions": "10000 nM; 72 h", "method_in_brief": "as §1", "units": {"cell viability": "%"}}
{"smiles": "CCCCN1C[C@H](O)[C@@H](O)[C@H](O)[C@H]1CO", "note": "[Miglustat]", "cell viability": 89.9}
{"smiles": "C=C(C=NNC(=N)N)NNC(=N)N", "note": "[Mitoguazone]", "cell viability": 29.3}
{"smiles": "CCCCC/C=C\\C/C=C\\C/C=C\\C/C=C\\CCCCN1C(=O)C=CC1=O", "note": "[N-Arachidonylmaleimide]", "cell viability": 90.6}
{"smiles": "CCCCCCCCCCC[C@@H](C[C@@H]1OC(=O)[C@H]1CCCCCC)OC(=O)[C@H](CC(C)C)NC=O", "note": "[Orlistat]", "cell viability": 103}
{"smiles": "COc1ccc(C(=O)Nc2c(Cl)cncc2Cl)cc1OC1CCCC1", "note": "[Piclamilast]", "cell viability": 83.1}
{"smiles": "COc1cc(/C=C/C(=O)N2CCC=CC2=O)cc(OC)c1OC", "note": "[Piperlongumine]", "cell viability": 0.672}
{"smiles": "O=C(NNc1ccccc1)c1ccncc1", "note": "[PluriSln 1]", "cell viability": 52}
{"smiles": "CC(C)c1nc(CN(C)C(=O)N[C@H](C(=O)N[C@@H](Cc2ccccc2)C[C@H](O)[C@H](Cc2ccccc2)NC(=O)OCc2cncs2)C(C)C)cs1", "note": "[Ritonavir]", "cell viability": 75.5}
{"smiles": "C=C(C)[C@H]1Cc2c(ccc3c2O[C@@H]2COc4cc(OC)c(OC)cc4[C@@H]2C3=O)O1", "note": "[Rotenone]", "cell viability": 2.57}
{"smiles": "Oc1ccc(Nc2nc(-c3ccc(Cl)cc3)cs2)cc1", "note": "[SKI II]", "cell viability": 36.8}
{"smiles": "O=C(O)c1cc(N=Nc2ccc(S(=O)(=O)Nc3ccccn3)cc2)ccc1O", "note": "[Sulfasalazine]", "cell viability": 131}
{"test_system": "KCL-22", "experiment": "cell viability (% survival relative to DMSO control, bortezomib = 0%); higher = less cytotoxic", "conditions": "1 nM; 72 h", "method_in_brief": "as §1", "units": {"cell viability": "%"}}
{"smiles": "CCCCN1C[C@H](O)[C@@H](O)[C@H](O)[C@H]1CO", "note": "[Miglustat]", "cell viability": 90.9}
{"smiles": "C=C(C=NNC(=N)N)NNC(=N)N", "note": "[Mitoguazone]", "cell viability": 94.4}
{"smiles": "CCCCC/C=C\\C/C=C\\C/C=C\\C/C=C\\CCCCN1C(=O)C=CC1=O", "note": "[N-Arachidonylmaleimide]", "cell viability": 90.9}
{"smiles": "CCCCCCCCCCC[C@@H](C[C@@H]1OC(=O)[C@H]1CCCCCC)OC(=O)[C@H](CC(C)C)NC=O", "note": "[Orlistat]", "cell viability": 105}
{"smiles": "COc1ccc(C(=O)Nc2c(Cl)cncc2Cl)cc1OC1CCCC1", "note": "[Piclamilast]", "cell viability": 95.3}
{"smiles": "COc1cc(/C=C/C(=O)N2CCC=CC2=O)cc(OC)c1OC", "note": "[Piperlongumine]", "cell viability": 92.3}
{"smiles": "O=C(NNc1ccccc1)c1ccncc1", "note": "[PluriSln 1]", "cell viability": 89.9}
{"smiles": "CC(C)c1nc(CN(C)C(=O)N[C@H](C(=O)N[C@@H](Cc2ccccc2)C[C@H](O)[C@H](Cc2ccccc2)NC(=O)OCc2cncs2)C(C)C)cs1", "note": "[Ritonavir]", "cell viability": 99.4}
{"smiles": "C=C(C)[C@H]1Cc2c(ccc3c2O[C@@H]2COc4cc(OC)c(OC)cc4[C@@H]2C3=O)O1", "note": "[Rotenone]", "cell viability": 97.8}
{"smiles": "Oc1ccc(Nc2nc(-c3ccc(Cl)cc3)cs2)cc1", "note": "[SKI II]", "cell viability": 94.5}
{"smiles": "O=C(O)c1cc(N=Nc2ccc(S(=O)(=O)Nc3ccccn3)cc2)ccc1O", "note": "[Sulfasalazine]", "cell viability": 107}
{"test_system": "KCL-22", "experiment": "cell viability (% survival relative to DMSO control, bortezomib = 0%); higher = less cytotoxic", "conditions": "10 nM; 72 h", "method_in_brief": "as §1", "units": {"cell viability": "%"}}
{"smiles": "CCCCN1C[C@H](O)[C@@H](O)[C@H](O)[C@H]1CO", "note": "[Miglustat]", "cell viability": 82.1}
{"smiles": "C=C(C=NNC(=N)N)NNC(=N)N", "note": "[Mitoguazone]", "cell viability": 100}
{"smiles": "CCCCC/C=C\\C/C=C\\C/C=C\\C/C=C\\CCCCN1C(=O)C=CC1=O", "note": "[N-Arachidonylmaleimide]", "cell viability": 95.7}
{"smiles": "CCCCCCCCCCC[C@@H](C[C@@H]1OC(=O)[C@H]1CCCCCC)OC(=O)[C@H](CC(C)C)NC=O", "note": "[Orlistat]", "cell viability": 87.9}
{"smiles": "COc1ccc(C(=O)Nc2c(Cl)cncc2Cl)cc1OC1CCCC1", "note": "[Piclamilast]", "cell viability": 101}
{"smiles": "COc1cc(/C=C/C(=O)N2CCC=CC2=O)cc(OC)c1OC", "note": "[Piperlongumine]", "cell viability": 109}
{"smiles": "O=C(NNc1ccccc1)c1ccncc1", "note": "[PluriSln 1]", "cell viability": 102}
{"smiles": "CC(C)c1nc(CN(C)C(=O)N[C@H](C(=O)N[C@@H](Cc2ccccc2)C[C@H](O)[C@H](Cc2ccccc2)NC(=O)OCc2cncs2)C(C)C)cs1", "note": "[Ritonavir]", "cell viability": 102}
{"smiles": "C=C(C)[C@H]1Cc2c(ccc3c2O[C@@H]2COc4cc(OC)c(OC)cc4[C@@H]2C3=O)O1", "note": "[Rotenone]", "cell viability": 103}
{"smiles": "Oc1ccc(Nc2nc(-c3ccc(Cl)cc3)cs2)cc1", "note": "[SKI II]", "cell viability": 107}
{"smiles": "O=C(O)c1cc(N=Nc2ccc(S(=O)(=O)Nc3ccccn3)cc2)ccc1O", "note": "[Sulfasalazine]", "cell viability": 97.3}
{"test_system": "KCL-22", "experiment": "cell viability (% survival relative to DMSO control, bortezomib = 0%); higher = less cytotoxic", "conditions": "100 nM; 72 h", "method_in_brief": "as §1", "units": {"cell viability": "%"}}
{"smiles": "CCCCN1C[C@H](O)[C@@H](O)[C@H](O)[C@H]1CO", "note": "[Miglustat]", "cell viability": 97.8}
{"smiles": "C=C(C=NNC(=N)N)NNC(=N)N", "note": "[Mitoguazone]", "cell viability": 103}
{"smiles": "CCCCC/C=C\\C/C=C\\C/C=C\\C/C=C\\CCCCN1C(=O)C=CC1=O", "note": "[N-Arachidonylmaleimide]", "cell viability": 100}
{"smiles": "CCCCCCCCCCC[C@@H](C[C@@H]1OC(=O)[C@H]1CCCCCC)OC(=O)[C@H](CC(C)C)NC=O", "note": "[Orlistat]", "cell viability": 90.2}
{"smiles": "COc1ccc(C(=O)Nc2c(Cl)cncc2Cl)cc1OC1CCCC1", "note": "[Piclamilast]", "cell viability": 92.7}
{"smiles": "COc1cc(/C=C/C(=O)N2CCC=CC2=O)cc(OC)c1OC", "note": "[Piperlongumine]", "cell viability": 90.3}
{"smiles": "O=C(NNc1ccccc1)c1ccncc1", "note": "[PluriSln 1]", "cell viability": 99.7}
{"smiles": "CC(C)c1nc(CN(C)C(=O)N[C@H](C(=O)N[C@@H](Cc2ccccc2)C[C@H](O)[C@H](Cc2ccccc2)NC(=O)OCc2cncs2)C(C)C)cs1", "note": "[Ritonavir]", "cell viability": 108}
{"smiles": "C=C(C)[C@H]1Cc2c(ccc3c2O[C@@H]2COc4cc(OC)c(OC)cc4[C@@H]2C3=O)O1", "note": "[Rotenone]", "cell viability": 81.7}
{"smiles": "Oc1ccc(Nc2nc(-c3ccc(Cl)cc3)cs2)cc1", "note": "[SKI II]", "cell viability": 109}
{"smiles": "O=C(O)c1cc(N=Nc2ccc(S(=O)(=O)Nc3ccccn3)cc2)ccc1O", "note": "[Sulfasalazine]", "cell viability": 106}
{"test_system": "KCL-22", "experiment": "cell viability (% survival relative to DMSO control, bortezomib = 0%); higher = less cytotoxic", "conditions": "1000 nM; 72 h", "method_in_brief": "as §1", "units": {"cell viability": "%"}}
{"smiles": "CCCCN1C[C@H](O)[C@@H](O)[C@H](O)[C@H]1CO", "note": "[Miglustat]", "cell viability": 98.1}
{"smiles": "C=C(C=NNC(=N)N)NNC(=N)N", "note": "[Mitoguazone]", "cell viability": 86.9}
{"smiles": "CCCCC/C=C\\C/C=C\\C/C=C\\C/C=C\\CCCCN1C(=O)C=CC1=O", "note": "[N-Arachidonylmaleimide]", "cell viability": 105}
{"smiles": "CCCCCCCCCCC[C@@H](C[C@@H]1OC(=O)[C@H]1CCCCCC)OC(=O)[C@H](CC(C)C)NC=O", "note": "[Orlistat]", "cell viability": 97}
{"smiles": "COc1ccc(C(=O)Nc2c(Cl)cncc2Cl)cc1OC1CCCC1", "note": "[Piclamilast]", "cell viability": 102}
{"smiles": "COc1cc(/C=C/C(=O)N2CCC=CC2=O)cc(OC)c1OC", "note": "[Piperlongumine]", "cell viability": 93.5}
{"smiles": "O=C(NNc1ccccc1)c1ccncc1", "note": "[PluriSln 1]", "cell viability": 110}
{"smiles": "CC(C)c1nc(CN(C)C(=O)N[C@H](C(=O)N[C@@H](Cc2ccccc2)C[C@H](O)[C@H](Cc2ccccc2)NC(=O)OCc2cncs2)C(C)C)cs1", "note": "[Ritonavir]", "cell viability": 94.5}
{"smiles": "C=C(C)[C@H]1Cc2c(ccc3c2O[C@@H]2COc4cc(OC)c(OC)cc4[C@@H]2C3=O)O1", "note": "[Rotenone]", "cell viability": 0.654}
